From patent US20240263142A1, “HUMAN OVARIAN CANCER NIRAPARIB-RESISTANT CELL STRAIN AND USE THEREOF” (WOMEN’S HOSPITAL, ZHEJIANG UNIVERSITY SCHOOL OF MEDICINE, priority 2022, published 2024)
Like-named read-outs stand apart in the source and are kept apart here.

Columns and labels:
A2780 cells = test: CCK-8 cytotoxicity experiment on parental A2780 cells; format: cell-based; details: Homo sapiens, 72 h drug treatment
Method: (§1) A cell counting kit-8 (CCK-8) of Shanghai Beyotime Biotechnology Co., Ltd. (C0038) was used in the cytotoxicity experiment. Cells in logarithmic growth phase were collected, and the concentration of cell suspension was adjusted to 5×10^4 cells/ml; 100 μl of the cell suspension was added to each well of 96-well plate, and the density of the cells to be tested was 5000 cells/well; cultures were incubated overnight in the incubator with 5 vol % CO2 at 37° C. until the cells were grown as adherent monolayers, and then drugs with concentrations of 1×10^−3-100 μM were added respectively; 3 replicate wells were set for each concentration; OD values were determined after 72 h of drug treatment; 10 μl CCK-8 solution was added to each well; after further incubation in the cell incubator for 2 h, the absorbance was measured at 450 nm using a microplate reader (Bio-Rad, Model 680), as shown in FIG. 3. The IC50 of the drug was calculated.

A2780-NiraR cells = test: CCK-8 cytotoxicity experiment on Niraparib-resistant A2780-NiraR cells (resistance index, stability of resistance); format: cell-based, human; details: for Drug resistance index (RI) = IC50 of drug-resistant cells/IC50 of parental cells: A2780-NiraR vs A2780; for IC50: Homo sapiens
Method: as §1
Resistance index (RI)=IC50 of drug-resistant cells/IC50 of parental cells.
After the establishment of A2780-NiraR cell strain, the drug resistance was re-tested after cell resuscitation following 3-month drug-withdrawal culture and 6-month liquid nitrogen cryopreservation. The procedure was the same as that of the resistance index determination in part 3.

[1] = A2780-NiraR cells, 72 h drug treatment, CCK-8, read-out: IC50

| SMILES | IC50 (A2780 cells) [µM] | Resistance of A2780-NiraR cells in words (A2780-NiraR cells; A2780-NiraR cells) | Drug resistance index (RI) = IC50 of drug-resistant cells/IC50 of parental cells (A2780-NiraR cells) | IC50 (A2780-NiraR cells; A2780-NiraR after resuscitation following 3-month drug-withdrawal culture and 6-month liquid nitrogen cryopreservation, read-out: IC50 of A2780-NiraR on re-test) [µM] | IC50 (A2780-NiraR cells; [1]) [µM] |
| --- | --- | --- | --- | --- | --- |
| NC(=O)c1cccc2cn(-c3ccc([C@@H]4CCCNC4)cc3)nc12 [Niraparib] | 3.17 | highly resistant | 8.274 | 24 | 26.2 |
| CC(=O)O[C@H]1C(=O)[C@@]2(C)[C@H]([C@H](OC(=O)c3ccccc3)[C@]3(O)C[C@H](OC(=O)[C@H](O)[C@@H](NC(=O)c4ccccc4)c4ccccc4)C(C)=C1C3(C)C)[C@]1(OC(C)=O)CO[C@@H]1C[C@@H]2O [Paclitaxel] | 0.01 | cross-resistant | 31.02 |  | 0.318 |
